The record followed here is patent publication US9695396B2, “Regenerated tissue comprising a stratified structure of epithelial cells” (JAPAN SCIENCE AND TECHNOLOGY CORPORATION, priority 2001, dated 2017).

One data set relates to ACHN-L4 cells. Kind of data set: cancer therapy sensitivity test by MTT assay on regenerated tissue (Embodiment 2), renal cancer. The data set is classed as cell-based, human. The settings on record: novel sensitivity test, ACHN-L4 on RPTEC/NHMC regenerated tissue. Background: Formazan colour is commonly taken as a measure of viable cells.
Another data set concerns hepatoma cells Alex. Kind of data set: cancer therapy sensitivity test by MTT assay on regenerated tissue (Embodiment 2), hepatoma. The class given is cell-based, human. The settings on record: combination of irradiation with cisplatin; Alex on Nheps regenerated tissue.
The test system of a further data set is AOI lung cancer cells. Kind of data set: cancer therapy sensitivity test by MTT assay, AOI on NHBE in stratified structure, SuSa feeder layer (Embodiment 3). The class given is cell-based, human. The note with it: 10 μg/ml for 72 hours. The protocol:
(§1) The cancer therapy sensitivity test was conducted in comparison with a conventional two-dimensional culture MTT assay system.
(§2) In these figures, a column of the cancer name (e.g: AOI) corresponds to the sensitivity of the cancer cells in the two-dimensional culture.
(§3) Also in these figures, the brackets the MTT assay correspond, from the left, the normal epithelial cell name employed (this time a bronchial epithelium (NHBE) or prostatic epithelium (PrEC)), the culture medium (1/10-fold or 1-fold), the fibroblast name employed as a feeder layer (human skin-derived (SUSA) or lung-derived (NHLF)). […] The drug treatments with all of three drugs employed here were conducted at 10 μg/ml for 72 hours.

The test system of data set [1] is prostatic cancer-derived DU-145 cancer cells. Nature of the data set: cancer therapy sensitivity test by MTT assay, DU-145 on PrEC in stratified structure, SuSa feeder layer (Embodiment 3). The class given is cell-based, human. The settings on record: 1/10-fold culture medium, 10 μg/ml for 72 hours.
For the next data set, the system named is AOI cancer tissue. Kind of data set: cancer therapy sensitivity test by MTT assay, AOI on NHBE, lung-derived fibroblasts (NHLF) as feeder layer. The data set is classed as cell-based, human. The settings on record: 10 μg/ml for 72 hours.
For a further data set, the system named is AOI tumor. Kind of data set: AOI tumor transplanted to a nude mouse. The class given is in vivo.
Data set [2] concerns regenerated normal bronchial epithelial tissue (NHBE). Nature of the data set: cancer therapy sensitivity test by MTT assay, regenerated normal tissue, SuSa feeder layer (Embodiment 3). The settings on record: 10 μg/ml for 72 hours. As for the experimental part:
as §1, §2, §3

Data set [3] shares this test system. Nature of the data set: cancer therapy sensitivity test by MTT assay, regenerated normal tissue, lung-derived fibroblasts (NHLF) as feeder layer. The class given is cell-based, human. The settings on record: 10 μg/ml for 72 hours. As for the experimental part:
as §1, §2, §3

[4] abbreviates: 1-fold culture medium, lung-derived fibroblast feeder.
The mark [5] stands for this setting: 1/10-fold culture medium, lung-derived fibroblasts as feeder.

`N.N.[Cl][Pt][Cl]` [cisplatin]: in the data set with ACHN-L4 cells, the “sensitivity of cancer cells in the MTT assay” value is “highly sensitive”. In addition, the “MTT assay result compared with the HDRA method” value in the data set on hepatoma cells Alex is recorded as “exhibited the difference in the effect”. Besides, the “tendency of 3-dimensional tissue to be more resistant than two-dimensional culture” value with AOI lung cancer cells (degree influenced by growth factor level in medium) is “tendency described above was observed also”. Further, the “sensitivity of DU-145 cancer cells compared with the AOI cells” value in data set [1] is reported as “rather resistant”. Besides, the “difference in the sensitivity of the AOI cancer tissue by the difference in the fibroblasts” value in the data set on AOI cancer tissue (1-fold culture medium, lung-derived vs skin-derived fibroblast feeder) was “small”. The “body weight of the nude mouse reduced to (fraction)” value with AOI tumor (cisplatin at 10 mg/kg) is “about ⅔”. Moreover, the tumor growth result with AOI tumor (cisplatin at 10 mg/kg, nude mouse) was “retarded growth was observed only for several days”.
Regarding `CO[C@@]12[C@H](COC(N)=O)C3=C(C(=O)C(C)=C(N)C3=O)N1C[C@@H]1N[C@@H]12` [MMC, mitomycin], the “resistance of 3-dimensional AOI cancer tissue coexisting with the normal tissue compared with 2-dimensionally cultured AOI cells” value in the data set on AOI lung cancer cells (1/10-level medium, drug alone) is given as “more resistant”. Besides, in data set [2] (1-fold level culture medium, drug alone), the “resistance of 3-dimensionally growing normal tissue” value is recorded as “rather more resistant”. Further, the “resistance of 3-dimensional normal tissue coexisting with the cancer tissue compared with the normal tissue alone” value in data set [2] (1/10-level medium, drug alone) was “rather more resistant”. Besides, the “difference in sensitivity between the skin-derived and lung-derived fibroblasts” value with AOI cancer tissue (1/10-fold culture medium) was “no substantial difference”. In addition, the “sensitivity of AOI tumor to mitomycin compared with cisplatin” value in the data set with AOI tumor (nude mouse-transplanted tumor) was “rather more sensitive”.
For `O=c1[nH]cc(F)c(=O)[nH]1` [5FU], the “proliferation of regenerated normal tissue” value in data set [2] (1-fold culture medium, 5FU alone) is reported as “proliferation was rather promoted”. For the same compound, the “growth of the regenerated normal bronchial epithelial tissue after removing co-cultured AOI cancer tissue” value in data set [2] (1/10-fold culture medium) was “tendency of the promotion of the growth”. Also, in data set [1], the “sensitivity of DU-145 cancer cells compared with the AOI cells” value was “highly sensitive”. For the same compound, in the data set on AOI cancer tissue (setting [4]), the “sensitivity of the AOI cancer cell tissue in 3-dimensional culture” value is “reduced sensitivity”. Further, the “sensitivity of tissue in MTT assay” value (in the data set on AOI cancer tissue (setting [5]); in data set [3] (setting [5])) was “no tissue exhibited any sensitivity” in each case. For the same compound, the “sensitivity of the normal tissue in 3-dimensional culture” value in data set [3] (setting [4]) was “reduced sensitivity”.
